Source: patent US20210267948A1, “TREATMENT OF CANCER” (CITY OF HOPE, priority 2017, published 2021)

Assays:
[1] = system: tumor xenografts; test: Pilot tumor xenograft study; assay type: in vivo; conditions: daily oral administration, IL2-rg(KO)/NOD-Scid mice
From the text: Toxicity studies in rats and dogs at doses equivalent to 10× that dose have not shown toxicity at 10 or 21 days.

[2] = system: human cancer cells resistant to gemcitabine, hydroxyurea or cisplatin; test: Growth of drug-resistant human cancer cells; assay type: cell-based; conditions: KB-Gem, KBHURs and others, 72 h
Method: FIGS. 11A-11B depict the activity of COH29 in gemcitabine (KB-Gem) (FIG. 11A) and hydroxyurea (KBHURs) (FIG. 11B) resistant cell lines in 72 h toxicity assay. Hydroxyurea (concentration 2-50 mmol/L), gemcitabine (concentration 20-500 μmon), and COH29 (concentration 2-250 μmon) were used for real-time growth curves for KBHUR and gemcitabine, respectively, based on comparison of 72-h viability of hydroxyurea-resistant or gemcitabine-resistant cells to COH29.

[3] = system: HCC1937; test: Microarray gene ontology enrichment, HCC1937; assay type: cell-based, human; conditions: genes downregulated, HCC1937-COH29 vs HCC1937
Method: (§1) FDR values were calculated using the method of Benjamini and Hochberg (28) from the distribution of ANOVA with Linear Contrastp-values. Gene ontology (GO) (29) enrichment analysis was performed within PARTEK® GENOMICS SUITE™, and GO categories were defined significant with a Fisher Exact test p-value<0.05.
(§2) To identify the mechanism through which COH29 preferentially lyses BRCA1-mutant human cancer cells, genome-wide microarray analysis was performed using the AFFYMETRIX® GENECHIP® microarray platform to identify the gene expression profiles and pathways affected by COH29 treatment. The RNA expression profile of COH29 treated HCC1937 breast cancer cells lacking BRCA1 was compared with that of COH29 treated HCC1937+BRCA1 cells. […] For example, DNA ligation involved in DNA repair is more strongly enriched in HCC1937 cells which may relate to the phenotypic effect.

[4] = system: A549 cells; test: DDR proteins in A549 cells (Western blot, immunofluorescence); assay type: cell-based, human
Method: Immunofluorescence experiments were conducted as described previously (21,22). Specifically, A549 cells were grown on glass coverslips. After treatment with COH29 (1 or 10 μM) for 24 or 48 hours, cells were fixed with 4% paraformaldehyde for 10 min and permeabilized with TRITON™ X-100 (0.5%). The coverslips were washed with phosphate-buffered saline (PBS) and blocked with PBS-containing 2% bovine serum albumin (BSA), incubated with an Ab specific to FOXO3 or ATM-pS1981 or γ-H2AX or p53-pS15 (1:50-1:200 dilution), followed by Alexa 488-conjugated anti-rabbit or anti-mouse (1:200), Alexa 594-conjugated anti-goat (1:100) secondary Abs (Molecular Probes). Cells were incubated with 4′,6-diamidino-2-phenylindole (DAPI; Sigma) to stain the nuclei. Specific staining was visualized and images were captured with a Leica SP2 AOBS confocal laser scanning microscope. To measure foci-positive cells, ˜300 cells were used randomly captured by confocal microscopy. The percentages of considering foci-positive cells were calculated from cells containing at least five foci. Each error bar presented is the mean of standard deviation.
For subcellular fractionation, cells were trypsinized and washed with cold PBS solution twice. After centrifugation at 1,200 g for 5 min, cells were incubated in buffer (50 mM HEPES, pH 7.5, 150 mM NaCl, 1 mM EDTA) containing 0.2% NONIDET™ P-40 (NP-40), supplemented with protease inhibitors (5 μg/ml each of pepstatin, leupeptin, and aprotinin) and phosphatase inhibitors on ice for 5 min. Following centrifugation at 1,000 g for 5 min, the supernatant was collected (i.e., cytoplasmic fraction) and pellets were washed with the same buffer twice. The washed samples were extracted for 40 min on ice with fractionation buffer containing 0.5% NP-40 for nuclear fraction. […] Protein concentrations of all fractions were determined with Bio-Rad Protein Assay (Bio-Rad Laboratories, Hercules, Calif.). […] The immunoblots were visualized on film with the West-Q chemi-luminescence kit (GenDEPOT, Barker, Tex.).

[5] = system: MCF-7 p53−/−; test: DNA damage checkpoint Western blot, MCF-7 p53-/-; assay type: cell-based, human
Method: (§3) FIG. 6. COH29 treatment activates DNA damage checkpoint. The effect of COH29 treatment on DNA damage checkpoint proteins in human breast cancer cells expressing wt p53 (MCF-7) or defective for p53 (MCF-7p53−/−), and in triple-negative breast cancer cells (MDA-MB-468) assessed by Western Blot.
(§4) For subcellular fractionation, cells were trypsinized and washed with cold PBS solution twice. After centrifugation at 1,200 g for 5 min, cells were incubated in buffer (50 mM HEPES, pH 7.5, 150 mM NaCl, 1 mM EDTA) containing 0.2% NONIDET™ P-40 (NP-40), supplemented with protease inhibitors (5 μg/ml each of pepstatin, leupeptin, and aprotinin) and phosphatase inhibitors on ice for 5 min. Following centrifugation at 1,000 g for 5 min, the supernatant was collected (i.e., cytoplasmic fraction) and pellets were washed with the same buffer twice. The washed samples were extracted for 40 min on ice with fractionation buffer containing 0.5% NP-40 for nuclear fraction. All the samples were sonicated and clarified by centrifugation at 16,000 g for 15 min. Protein concentrations of all fractions were determined with Bio-Rad Protein Assay (Bio-Rad Laboratories, Hercules, Calif.). Immunoblotting was performed as described previously (21,22). […] The immunoblots were visualized on film with the West-Q chemi-luminescence kit (GenDEPOT, Barker, Tex.).

[6] = system: multiple human cancer cell lines; test: In vitro activity in multiple human cancer cell lines; assay type: cell-based; conditions: in most cases
[7] = Exposure in animal toxicology studies; conditions: in vivo, read-out: AUC, maximum level observed
Method: Maximum dose level is capped at 2400 mg/day (Dose Level 8) corresponding to closest highest level achieved in animal studies. […] Intrapatient dose escalation is permissible if a dose level has been cleared.

[8] = system: MCF7 cells containing wild-type p53; test: DNA damage checkpoint Western blot, MCF-7; assay type: cell-based, human
Method: as §3, §4

[9] = system: HCC1937+BRCA1; test: Microarray gene ontology enrichment, HCC1937+BRCA1; assay type: cell-based, human; conditions: genes downregulated, HCC1937 + BRCA1-COH29 vs HCC1937 + BRCA1
Method: as §1, §2

O=C(Nc1nc(-c2ccc(O)c(O)c2)c(-c2ccccc2)s1)c1ccc(O)c(O)c1 [COH29, N-(4-(3,4-dihydroxyphenyl)-5-phenylthiazol-2-yl)-3,4-dihydroxybenzamide]
lowest dose observed to inhibit growth of tumor xenografts [1]: 50 mg/kg
growth of resistant cancer cells [2]: suppresses the growth
Genes (n): DNA ligation involved in DNA repair [3]: 3
Genes (n): DNA repair [3]: 17
Genes (n): DSB repair [3]: 7
Genes (n): DSB repair via HR [3]: 5
Genes (n): DSB repair via NHEJ [3]: 2
protein level of BRCA1 and Rad51 foci formation ([4]; A549, 24 h): suppressed
γ-H2AX, phospho-p53 and phospho-ATM in the nucleus ([4]; A549, BRCA1 wild-type, 48 h): induced accumulation
Rad51 expression in the nucleus ([4]; A549, BRCA1 wild-type, Western analysis): downregulated
DNA damage checkpoint proteins (ATM, CHK1, CHK2) [5]: similarly modified
γ-H2AX level [5]: increase
IC50 [6]: < 10 µM
AUC [7]: 5000 ng·h/mL
DNA damage checkpoint (phosphorylation of ATM, CHK1, CHK2) [8]: activated the DNA damage checkpoint
γ-H2AX level [8]: increase
Genes (n): DNA ligation involved in DNA repair [9]: 3
Genes (n): DNA repair [9]: 44
Genes (n): DSB repair [9]: 14
Genes (n): DSB repair via HR [9]: 9
Genes (n): DSB repair via NHEJ [9]: 3
